How the values were obtained:
[1] = excess molar enthalpy (molar enthalpy of mixing); xn = mol fraction of the nth substance listed; conditions: 101.32 kPa, Liquid, Calvet calorimetry
[2] = xn = mol fraction of the nth substance listed; conditions: 101.32 kPa, Liquid

COC=O [methyl methanoate] + CC(C)(C)O
299.15 K
Conditions	excess molar enthalpy, [1] [kcal/mol]	excess molar volume, [2] [m3/mol]
x1 = 0.0627	–	2.95e-07
x1 = 0.0899	0.158	–
x1 = 0.1002	–	4.51e-07
x1 = 0.1302	–	5.67e-07
x1 = 0.1667	–	6.88e-07
x1 = 0.202	0.336	–
x1 = 0.2419	–	8.67e-07
x1 = 0.2873	0.451	–
x1 = 0.319	–	9.88e-07
x1 = 0.3526	–	1.025e-06
x1 = 0.3657	0.528	–
x1 = 0.4033	–	1.061e-06
x1 = 0.4323	0.57	–
x1 = 0.4976	–	1.068e-06
x1 = 0.5033	0.594	–
x1 = 0.5076	–	1.067e-06
x1 = 0.5567	0.594	–
x1 = 0.5726	–	1.036e-06
x1 = 0.6017	0.581	–
x1 = 0.6163	–	9.94e-07
x1 = 0.6287	0.569	–
x1 = 0.6512	–	9.55e-07
x1 = 0.6747	0.538	–
x1 = 0.7222	0.491	8.68e-07
x1 = 0.7382	–	8.34e-07
x1 = 0.7721	0.433	–
x1 = 0.7939	–	7.46e-07
x1 = 0.8111	–	7.04e-07
x1 = 0.8206	0.364	–
x1 = 0.8697	0.282	–
x1 = 0.8902	–	5.01e-07
x1 = 0.9187	0.186	–
x1 = 0.9574	–	2.43e-07
x1 = 0.9598	0.0997	–

CCC(=O)OC [methyl propanoate] + CC(C)(C)O
Conditions	excess molar enthalpy [kcal/mol]	excess molar volume [m3/mol]
[1], 299.15 K, x1 = 0.0603	0.1	–
[1], 299.15 K, x1 = 0.1414	0.213	–
[1], 299.15 K, x1 = 0.2285	0.317	–
[1], 299.15 K, x1 = 0.3164	0.395	–
[1], 299.15 K, x1 = 0.3971	0.442	–
[1], 299.15 K, x1 = 0.4573	0.461	–
[1], 299.15 K, x1 = 0.4705	0.464	–
[1], 299.15 K, x1 = 0.5159	0.467	–
[1], 299.15 K, x1 = 0.5343	0.465	–
[1], 299.15 K, x1 = 0.5899	0.453	–
[1], 299.15 K, x1 = 0.6328	0.435	–
[1], 299.15 K, x1 = 0.6447	0.428	–
[1], 299.15 K, x1 = 0.7116	0.387	–
[1], 299.15 K, x1 = 0.7778	0.328	–
[1], 299.15 K, x1 = 0.8496	0.244	–
[1], 299.15 K, x1 = 0.9351	0.115	–
[1], 318.15 K, x1 = 0.0486	0.0779	–
[1], 318.15 K, x1 = 0.1007	0.153	–
[1], 318.15 K, x1 = 0.1707	0.24	–
[1], 318.15 K, x1 = 0.2374	0.31	–
[1], 318.15 K, x1 = 0.3021	0.364	–
[1], 318.15 K, x1 = 0.3578	0.4	–
[1], 318.15 K, x1 = 0.4076	0.425	–
[1], 318.15 K, x1 = 0.4404	0.439	–
[1], 318.15 K, x1 = 0.4827	0.445	–
[1], 318.15 K, x1 = 0.5312	0.45	–
[1], 318.15 K, x1 = 0.582	0.441	–
[1], 318.15 K, x1 = 0.6358	0.423	–
[1], 318.15 K, x1 = 0.6986	0.393	–
[1], 318.15 K, x1 = 0.7666	0.336	–
[1], 318.15 K, x1 = 0.8289	0.272	–
[1], 318.15 K, x1 = 0.8931	0.189	–
[1], 318.15 K, x1 = 0.9582	0.0935	–
[2], 303.15 K, x1 = 0.0517	–	1.52e-07
[2], 303.15 K, x1 = 0.1081	–	2.93e-07
[2], 303.15 K, x1 = 0.1525	–	3.88e-07
[2], 303.15 K, x1 = 0.202	–	4.71e-07
[2], 303.15 K, x1 = 0.2516	–	5.43e-07
[2], 303.15 K, x1 = 0.3129	–	6.1e-07
[2], 303.15 K, x1 = 0.3638	–	6.48e-07
[2], 303.15 K, x1 = 0.406	–	6.67e-07
[2], 303.15 K, x1 = 0.4603	–	6.78e-07
[2], 303.15 K, x1 = 0.5167	–	6.79e-07
[2], 303.15 K, x1 = 0.5558	–	6.68e-07
[2], 303.15 K, x1 = 0.6086	–	6.41e-07
[2], 303.15 K, x1 = 0.6546	–	6.07e-07
[2], 303.15 K, x1 = 0.7197	–	5.43e-07
[2], 303.15 K, x1 = 0.752	–	4.91e-07
[2], 303.15 K, x1 = 0.8122	–	4.15e-07
[2], 303.15 K, x1 = 0.8545	–	3.48e-07
[2], 303.15 K, x1 = 0.9065	–	2.53e-07
[2], 303.15 K, x1 = 0.9394	–	1.73e-07
[2], 318.15 K, x1 = 0.075	–	1.94e-07
[2], 318.15 K, x1 = 0.1476	–	3.15e-07
[2], 318.15 K, x1 = 0.1952	–	4.16e-07
[2], 318.15 K, x1 = 0.2636	–	4.98e-07
[2], 318.15 K, x1 = 0.3159	–	5.59e-07
[2], 318.15 K, x1 = 0.3628	–	6.06e-07
[2], 318.15 K, x1 = 0.4165	–	6.39e-07
[2], 318.15 K, x1 = 0.4931	–	6.48e-07
[2], 318.15 K, x1 = 0.5472	–	6.41e-07
[2], 318.15 K, x1 = 0.6296	–	6.09e-07
[2], 318.15 K, x1 = 0.6429	–	5.87e-07
[2], 318.15 K, x1 = 0.7013	–	5.41e-07
[2], 318.15 K, x1 = 0.795	–	4.27e-07
[2], 318.15 K, x1 = 0.8267	–	3.68e-07
[2], 318.15 K, x1 = 0.8822	–	2.81e-07
[2], 318.15 K, x1 = 0.9493	–	1.39e-07

— the NIST ThermoML archive (doi:10.1021/je034290l)
